Test results from patent publication US10117946B2, “Self-assembling ultrashort peptides modified with bioactive agents by click chemistry” (Agency for Science, Technology and Research, priority 2012, dated 2018).
Values joined by “and” are separate entries in the source; they are usually repeats but may differ in a detail not shown here. Equal entries are not always repeated.

How the values were obtained:
[1] = test system: HeLa (cervical carcinoma) cells; assay: Cytotoxicity, colorimetric microculture assay (MTS assay); assay type: cell-based, human; settings: 96 h exposure
Description: (§1) Cytotoxicity of all synthesized compounds was evaluated on two human derived cancer cell lines namely HeLa (cervical carcinoma) and SW480 (colon carcinoma). 4T1 mouse breast cancer cells were also used for evaluation. Cells were first treated with different concentrations of the test compounds and incubated for 96 h at 37° C. Subsequently, the cell viability was measured by means of a colorimetric microculture assay (MTS assay).
(§2) Human cervical carcinoma cell line HeLa, human colon carcinoma cell line SW480 and mouse breast cancer cell line 4T1 were purchased from the American Type Culture Collection (Manassas, Va., USA). The cell lines were cultured in DME medium (Biopolis shared facilities, A*STAR, SG) supplemented with 10% heat inactivated fetal bovine serum and 1% of mixture of penicillin and streptomycin (Invitrogen, CA, U.S.A). The cells were maintained in a 75 mL cell culture flask (Nunc) at 37° C. in a humidified incubator with 95% air and 5% CO2.
(§3) Cytotoxicity was determined by means of a colorimetric microculture assay (MTs assay, MTS=[…]) For this purpose, HeLa, SW480, and 4T1 cells were harvested from culture flasks by trypsinization and seeded into 96-well microculture plates in cell densities of 3.5×10^3 cells/well. The cells were allowed to attach for 8 h. Subsequently, cells were exposed to serial dilutions of the test compounds in 150 μL/well complete culture medium for 96 h. Then 25 uL of CellTiter 96® Aqueous one solution reagent was added to the cells, followed by incubation for 2 h at 37° C. After incubation, the absorbance was measured at a wavelength of 499 nm using a microplate reader. The quantity of vital cells was expressed in terms of T/C values in comparison to untreated control microcultures, and 50% inhibitory concentrations (IC50) were calculated from concentration-effect curves by a nonlinear curve fit using Origin Lab 7.5.

[2] = test system: SW480 (colon carcinoma) cells; assay: as above; assay type: cell-based, human; settings: 96 h exposure
Description: as §1, §2, §3

[3] = test system: 4T1 mouse breast cancer cells; assay: as above; assay type: cell-based; settings: 96 h exposure
Description: as §1, §2
Cytotoxicity was determined by means of a colorimetric microculture assay (MTs assay, MTS=[…]) For this purpose, HeLa, SW480, and 4T1 cells were harvested from culture flasks by trypsinization and seeded into 96-well microculture plates in cell densities of 3.5×10^3 cells/well. […] After incubation, the absorbance was measured at a wavelength of 499 nm using a microplate reader. […]

4T1 cells = assay: Cell cycle analysis (propidium iodide, flow cytometry); assay type: cell-based, mouse; settings: 10 μM, 96 h
Description: (§4) To further characterize the in vitro efficacy of 3-6, cell cycle analysis and measurement of caspase activity was conducted after incubation with the drug candidates. […] Oxaliplatin coordinates to DNA nucleotides, preventing the cell from crossing the DNA damage check point. […] This is very close to the oxaliplatin control were about 55% of the cells were in a G2/M arrest. […] The fact that all compounds were associated with an increase in the G2/M phase proves that compound 3-6 is able to bind to DNA in the tested cells, although the effect is not as pronounced as in the oxaliplatin control.
(§5) Cells (3×10^6 cells) were seeded into 10 cm petridishes and allowed to recover for 24 h. The medium was exchanged to serum free DME medium and the cells were allowed to synchronize for 24 h. The medium was later changed to DME medium containing 10% heat inactivated fetal bovine serum and 1% of mixture of penicillin and streptomycin (Invitrogen, CA, U.S.A). Cells were exposed to 10 μM of the test compounds for 96 h. Control and treated cells were collected, washed with PBS, fixed in 70% ice-cold ethanol, and stored at −20° C. To determine cell cycle distributions, cells were transferred to a PBS solution, incubated with 10 μg/mL RNase A for 30 min at 37° C., and treated with 5 μg/mL propidium iodide for 30 min. Fluorescence of individual cells was measured by flow cytometry, […]

SW480 cells = assay: as above; assay type: cell-based, human; settings: 10 μM, 96 h
Description: as §4, §5

[4] = test system: 4T1 breast cancer tumor in BALB/c mice; assay: In vivo therapeutic efficacy, intratumoral injection, tumor volume; parameters: species or system mouse; settings: for Tumor volume, Significant? vs. PBS, Day 14: Holm-Sidak, overall significance level 0.05, comparator PBS group
From the text: (§6) Female BALB/c mice were divided into four groups for treatment (PBS group and Ac-LIVAGK-NH2 (SEQ ID NO. 16 acylated and amidated) hydrogel group as negative controls, oxaliplatin as positive control and test compound 3 as a hybrid hydrogel with Ac-LIVAGK-NH2 (SEQ ID NO. 16 acylated and amidated)). Each group comprised of 9 mice. Tumour growth was initiated via a subcutaneous injection of 1 million 4T1 cells into the mouse flank. Seven days after cell injection, compound 3 was directly injected into the tumor using Ac-LIVAGK-NH2 (SEQ ID NO. 16 acylated and amidated), its parent peptide, as gel matrix. The same volume was accordingly injected into the other three groups. As a first dose 15 mg/kg oxaliplatin was used, which is equivalent to 44 mg/kg of compound 3. A re-injection was performed on day 21 of the experiment. The animals were sacrificed on day 28 and final tumor size was measured.
(§7) Adult female Balb/c mice used in this study (weight 20 g; aged 6-8 weeks) were provided by Biological Resource Center (BRC), A*Star, Biopolis, Singapore. For tumor establishment, 1×10^6 mouse 4T1 breast cancer cells were injected subcutaneously into the flank of Balb/c mice (designated as day 0). To investigate the effect of the mixture of Oxaliplatin and hydrogel, the tumor-inoculated animals were divided into 4 groups (n=9 per group) on day 7 post-tumor inoculation and received an intratumor injection of sample solutions: phosphate buffered saline (PBS), Ac-LIVAGK-NH2 (SEQ ID NO. 16 acylated and amidated) (12.5 mg/mL) oxaliplatin (15 mg/kg), 3 (44 mg/kg) and Ac-LIVAGK-NH2 (SEQ ID NO. 16 acylated and amidated) (12.5 mg/mL). 100 μL of each sample were injected directly into the tumor. The hydrogels were prepared prior to injection by dissolving the peptide in 1×PBS and vortexing for 1 min. The sample containing 3 was prepared in a similar manner; 3 was dissolved in 1×PBS and the resulting solution was added to the peptide and vortexed for 1 min. A solid hydrogel was observed about 10 min after sample preparation, to allow in situ gelation inside the tumor.
Tumor volume was determined by measurement with an electronic digital vernier caliper. Readings were taken once a week until day 28 post-tumor inoculation. The ellipsoid volume of the tumor (mm^3) was then calculated using the formula: Volume=(Width)×(Length)×(height)×π/6.
(§8) Data are represented as mean±SE. […] A P-value of <0.05 was considered to be statistically significant.

[5] = In vivo study, body weight comparison of treatment groups; parameters: species or system mouse
From the text: as §6
The same holds true for day 21 of the experiment. […] This was confirmed by a significant weight difference between the oxaliplatin group and the group treated with compound 3. Therefore, reinjection on day 21 involved only half the initial dose.
as §7, §8

[6] = Gelation ability in water (vortexing, left to stand overnight); assay type: physicochemical
Description: To test the gelation ability of compounds 3-8, they were dissolved in water by vortexing and left to stand overnight. […] In contrast, the alkyne-derived peptide P1 gelled in water at a concentration of 30 mg/mL, which is close to the minimal gelation concentration of its parent peptide SEQ ID NO 16 Ac-LIVAGK-NH2 (Ac-LK6-NH2). […] We assume, that the derivatization of the peptides with cisplatin or oxaliplatin and a bulky triazole group interferes with their self-assembly by changing the lipophilicity of the N-terminus of the peptide. However, stable hybrid gels could be formed with up to 40 wt % loading when the parent peptide was used as a matrix.

[7] = Holm-Sidak pairwise comparison, comparator Ac-LK6-NH2 hydrogel group
[8] = Holm-Sidak pairwise comparison, comparator PBS group
[9] = Holm-Sidak, 0.05, comparator Ac-LK6-NH2 hydrogel group
[10] = Holm-Sidak, 0.05, comparator PBS group
[11] = comparator Ac-LK6-NH2 hydrogel group

Compound: O=C1[O][Pt]2([NH][C@@H]3CCCC[C@H]3[NH]2)[O]C1=O [oxaliplatin]
- IC50 [1]: 2000 ± 800 nM
- IC50 [2]: 500 nM and 470 nM
- IC50 [3]: 1800 ± 500 nM
- apoptotic cells (4T1 cells): about 30%
- cells arrested in G2/M (4T1 cells): about 55%
- apoptotic cells (SW480 cells): no apoptotic cells
- cells arrested in G2/M (SW480 cells): about 80%
- Tumor volume, Diff of Means vs. Ac-LK6-NH2, Day 14 [4, 7]: 101.218 mm^3
- Tumor volume, Diff of Means vs. Ac-LK6-NH2, Day 28 [4, 7]: 1150.053 mm^3
- Tumor volume, Diff of Means vs. LK6, Day 21 ([4]; Holm-Sidak pairwise comparison, comparator LK6 hydrogel group): 487.488 mm^3
- Tumor volume, Diff of Means vs. PBS, Day 14 [4, 8]: 253.590 mm^3
- Tumor volume, Diff of Means vs. PBS, Day 21 [4, 8]: 580.470 mm^3
- Tumor volume, Diff of Means vs. PBS, Day 28 [4, 8]: 855.616 mm^3
- Tumor volume, Significant? vs. Ac-LK6-NH2, Day 14 [4, 9]: No
- Tumor volume, Significant? vs. Ac-LK6-NH2, Day 28 [4, 9]: Yes
- Tumor volume, Significant? vs. LK6, Day 21 ([4]; Holm-Sidak, 0.05, comparator LK6 hydrogel group): Yes
- Tumor volume, Significant? vs. PBS, Day 21 [4, 10]: Yes
- Tumor volume, Significant? vs. PBS, Day 28 [4, 10]: Yes
- Tumor volume, Significant? vs. PBS, Day 14 [4]: Significant tumor reduction
- Tumor volume, Significant? vs. PBS, Day 14 ([4]; listed as Oxaliplatin): Yes
- Tumor volume, Mean, Day 7 ([4]; day 7 post-tumor inoculation = day of first intratumoral injection (baseline), n=9): 61.938 mm^3
- Tumor volume, Mean, Day 14 ([4]; day 14, intratumoral injection day 7: oxaliplatin 15 mg/kg or 3 44 mg/kg in Ac-LIVAGK-NH2 gel, n=9): 135.101 mm^3
- Tumor volume, Mean, Day 21 ([4]; day 21, intratumoral injection day 7: oxaliplatin 15 mg/kg or 3 44 mg/kg in Ac-LIVAGK-NH2 gel, n=9): 96.493 mm^3
- Tumor volume, Mean, Day 28 ([4]; day 28, injection day 7, re-injection day 21 with half the initial dose, n=9): 250.650 mm^3
- Weight, Significant? vs. Ac-LK6-NH2, Day 20 [5, 9]: Yes
- Weight, Significant? vs. Ac-LK6-NH2, Day 28 [5, 9]: Yes
- Weight, Significant? vs. PBS, Day 20 [5, 10]: Yes
- Weight, Significant? vs. PBS, Day 28 [5, 10]: Yes
- Weight, Mean, Day 20 ([5]; body weight of BALB/c mice, day 20, injection day 7, n=9): 19.754
- Weight, Mean, Day 28 ([5]; body weight of BALB/c mice, day 28, re-injection day 21 with half dose, n=9): 20.593
- Weight, Diff of Means vs. Ac-LK6-NH2, Day 20 [5, 11]: 2.831
- Weight, Diff of Means vs. Ac-LK6-NH2, Day 28 [5, 11]: 1.982
- Weight, Diff of Means vs. PBS, Day 20 ([5]; comparator PBS group): 2.813
- Weight, Diff of Means vs. PBS, Day 28 ([5]; comparator PBS group): 1.742
- effect on the mice at the administered dose, compared to conjugate 3 ([5]; oxaliplatin 15 mg/kg intratumoral, confirmed by significant weight difference): significant deleterious effect

Compound: P1: alkyne-derived (propiolic acid functionalized) peptide; parent peptide Ac-LIVAGK-NH2 (also: propiolic acid alkyne functionalization, site not given here) [Compound P1]
- concentration at which the peptide gelled in water [6]: 30000 µg/mL

Compound: N.N.[Cl][Pt][Cl] [cisplatin]
- IC50 [1]: 620 nM and 1000 nM
- IC50 [2]: 4000 ± 2500 nM
- IC50 [3]: 1500 ± 600 nM
